# Columns and labels:
# [1] = test system: TPM3-NTRK1-positive human colon cancer cell lines KM12; test: Growth inhibition test in TPM3-NTRK1 positive KM12 cell lines (CellTiter-Glo, combination index); assay type: cell-based; conditions: named kinase inhibitor used in combination with compound A; KM12 cells, 72 hours; CI<1 synergistic
# Experimental: Pharmacological Experiment Example 3: Growth Inhibition Test in TPM3-NTRK1 Positive KM12 Cell Lines
# Using KM12 as TPM3-NTRK1-positive human colon cancer cell lines, an effect when 1-{2-[4-(2-amino-5-chloro-3-pyridinyl)phenoxy]-5-pyrimidinyl}-3-[2-(methylsulfonyl)-5-(trifluoromethyl)phenyl]urea (hereinafter sometimes referred to as a compound A) and trametinib, selumetinib, palbociclib, afatinib or erlotinib were combined was evaluated. Cells were subcultured using a DMEM containing a 10 vol % inactivated fetal bovine serum (FBS) and 1 vol % penicillin-streptomycin liquid as a culture medium before they underwent the experiment.
# One day before the compound was treated, cells were floated using 0.25% Trypsin-EDTA, and the cells were collected into a centrifuge tube from a culture flask. At room temperature, 180 g of the cells were centrifuged for 3 minutes, and the cell sediment was then suspended in a DMEM culture medium. A part of the cell suspension was collected, the number of cells was counted, and the cells were then suspended in the DMEM culture medium at a cell density of 3.75×10^4 cells/mL to prepare a cell suspension. The cell suspension was inoculated at 80 μL/well in a 96-well tissue culture plate (Asahi Glass Co., Ltd.), and left for 24 hours under 37° C., 5% CO2, and 95% air conditions.
# On the day when the compound was treated, 10 mM of each compound (DMSO solution) was serially diluted with DMSO to prepare a diluted solution. The diluted solution of each compound and DMSO were diluted 100-fold in a culture medium to prepare a 10-fold concentration of the treatment solution of each compound and the medium solution. The compound A solution or medium solution prepared above was added at 10 μL/well to wells of a 96-well tissue culture plate in which cells were stationary-cultured for 24 hours. Then, in the same manner, the trametinib, selumetinib, palbociclib, afatinib or erlotinib solution or the medium solution was added at 10 μL/well to wells of the 96-well tissue culture plate. […]
# After the stationary culture was completed, a luminescent signal (relative luminescent unit, RLU) of each well was measured by a microplate reader using a CellTiter-Glo Luminescent Cell Viability Assay kit (Promega, G7571). An average value of RLUs of 3 wells of a medium group (a group treated with a medium solution having a compound concentration of zero (0)) was calculated, and a growth inhibition rate in each well was calculated by the following mathematical formula. […]
# In order to analyze the combined effect, using a fluorescence intensity, the effective dose (ED)50, ED75, ED90 and ED95 were calculated, and a combination index (CI) described in Advances in enzyme regulation, vol. 22, 1984, pp. 27-55 was calculated for analysis. […]
# [2] = test system: ETV6-NTRK3 positive human leukemia cell lines IMS-M2; test: Growth inhibition experiment in ETV6-NTRK3 positive IMS-M2 cell lines (combination index); assay type: cell-based; conditions: named kinase inhibitor used in combination with compound A; IMS-M2 cells, 72 hours; CI<1 synergistic
# Experimental: Cells were subcultured using an RPMI culture medium containing a 10 vol % FBS and 1 vol % penicillin-streptomycin liquid before they underwent the experiment.
# On the day when the compound was treated, cells were collected from a culture flask into a centrifuge tube. At room temperature, 300 g of cells were centrifuged for 3 minutes, and the cell sediment was then suspended in the RPMI culture medium.
# The diluted solution of each compound and DMSO were diluted 100-fold in a culture medium to prepare a 10-fold concentration of the treatment solution of each compound and the medium solution.
# [3] = test system: KM12-AR (compound A resistant KM12 cell lines); test: Growth inhibition test in compound A resistant KM12 cell lines (KM12-AR); assay type: cell-based, human; conditions: KM12-AR cells; single treatment
# Experimental: Pharmacological Experiment Example 5: Growth Inhibition Test in Compound a Resistant KM12 Cell Lines
# Using KM12 as TPM3-NTRK1-positive human colon cancer cell lines, a strain resistant to the compound A was established. A DMEM (Life technologies, product number: 11965) containing a 10 vol % FBS and 1 vol % penicillin-streptomycin liquid was prepared as a culture medium. The thawed KM12 was suspended in the culture medium. At room temperature, 180 g was centrifuged for 3 minutes, the supernatant was removed by suction, and the cell sediment was then re-suspended in the culture medium, and a total amount of 50 mL was inoculated in a 225 cm^2 flask (Asahi Glass Co., Ltd.). […]
# Then, every two or three days, the culture medium was replaced or subcultured. […] The cell sediment was suspended in the DMEM culture medium, a part of the cell suspension was then collected, and the number of viable cells was counted. […]
# Using KM12-AR, an effect when the compound A and trametinib, selumetinib, palbociclib, gefitinib, erlotinib, afatinib, lapatinib, neratinib or canertinib were combined was evaluated. […]
# On the day when the compound was treated, 10 mM of each compound (DMSO solution) was serially diluted with DMSO to prepare a diluted solution. […] After the compound was added, the growth inhibition rate was calculated in the same method as in Pharmacological Experiment Example 3.
SMILES,CI (median value) [1],CI (median value) [2],"growth inhibitory effect, treated alone [3]"
"Cn1cnc2c(F)c(Nc3ccc(Br)cc3Cl)c(C(=O)NOCCO)cc21 [Selumetinib, selumetinib]",0.674,0.549,
CS(=O)(=O)c1ccc(C(F)(F)F)cc1NC(=O)Nc1cnc(Oc2ccc(-c3cc(Cl)cnc3N)cc2)nc1 [1-{2-[4-(2-amino-5-chloro-3-pyridinyl)phenoxy]-5-pyrimidinyl}-3-[2-(methylsulfonyl)-5-(trifluoromethyl)phenyl]urea],,,no growth inhibitory effect was observed
"CN(C)C/C=C/C(=O)Nc1cc2c(Nc3ccc(F)c(Cl)c3)ncnc2cc1O[C@H]1CCOC1 [Afatinib, afatinib]",0.861,0.869,
"CC(=O)Nc1cccc(-n2c(=O)n(C3CC3)c(=O)c3c(Nc4ccc(I)cc4F)n(C)c(=O)c(C)c32)c1 [Trametinib, trametinib]",0.705,0.652,
"CC(=O)c1c(C)c2cnc(Nc3ccc(N4CCNCC4)cn3)nc2n(C2CCCC2)c1=O [Palbociclib, palbociclib]",0.660,0.719,
